According to US20080152640A1, “Means and Methods For Treating a Disease Which is Associated With an Excess Transport of Hyaluronan Across a Lipid Bilayer” (priority 2003, published 2008):
Like-named read-outs stand apart in the source and are kept apart here.

Experiments:
hyaluronan synthase = conditions: for hyaluronan transport / synthase activity in membranes: membranes from human fibroblasts; for IC50: read-out: HA synthase activity (IC50), membranes of human fibroblasts
hyaluronan transport = assay: Inhibition of hyaluronan transport (export) from human fibroblasts, discussion of Example 9; conditions: for IC50: Homo sapiens, Fibroblast, read-out: IC50 for hyaluronan transport (export); for inhibition of hyaluronan transport (words): human fibroblasts
Description: Cells from five culture flasks (180 cm2 growth area) were washed with cold phosphate buffered saline (PBS), harvested with the aid of a rubber policeman, sedimented at 1500 g for 5 min and suspended in 30 ml of ice-cold PBS. The cells were transferred into a Parr-cell disruption bomb, exposed to a nitrogen pressure of 900 psi for 15 min and disrupted by nitrogen cavitation [18] and the particulate fraction was obtained by centrifugation at 40000 g for 20 min. […] Hyaluronan synthesis was stopped by adding a solution of 10% sodium dodecylsuifate (SDS) to a final concentration of 1%. The mixtures were applied to descending paper chromatography that was developed with ethanol/aq. 1 M ammonium acetate pH 5.5 (13:7) as solvent. After 18 h the radioactivity of [14C]hyaluronan at the origin was determined.
Trypsinised fibroblasts were suspended in Dulbecco's medium at 10^5 cells/ml and 100 μl aliquots were transferred to a 96 well microtiter plate. The first row received 200 μl of the suspension and 20 μl of the multidrug resistance inhibitors dissolved in DMSO at concentrations of 4 mM. A serial dilution to the inhibitors was established by transfer of 100 μl aliquots from the first row to the following rows. All experiments were performed in duplicates. […] The cells were incubated for 2 days at 37° C. and aliquots (5 and 20 μl) of the culture medium were used for measurement of the hyaluronan concentration in the cell culture medium by an ELISA [19]. […] The mixtures were transferred to the hyaluronan-coated test plate and incubated for 1 hour at 37° C. The microtiter plate was washed three times with buffer A and incubated with 100 μl/well of a solution of streptavidin-horseraddish-peroxidase (Amersham) at a dilution of 1:100 in phosphate buffered saline, 0.1% Tween-20 for 30 min at room temperature. The plate was washed five times with buffer A and the colour was developed by incubation with a 100 μl/well of a solution of 5 mg o-phenylenediamine and 5 μl 30% H2O2 in 10 ml of 0.1 M citrate-phosphate buffer pH 5.3 for 25 min at room temperature. The adsorption was read at 490 nm. The concentrations in the samples were calculated from a logarithmic regression curve of the hyaluronan standard solutions.
Three parameters were measured: 1. The amount of hyaluronan produced during growth into the culture supernatant. 2. The hyaluronan synthase activity in particulate membrane fractions to eliminate the possibility that inhibition of hyaluronan production in cell culture could be caused indirectly by cellular mediators. 3. The effect on cell proliferation, because hyaluronan synthesis is also required for detachment during mitosis and growth of the human HT1080 cell line [14].

human fibroblasts [1] = assay: Export of fluorescent hyaluronan oligosaccharides from the cytosol of human fibroblasts; type: cell-based
Description: The media were withdrawn and the cells were incubated at 37° C. with DMEM/water (3:2, v/v) for 2 min. The cells were subjected twice to this incubation sequence and then grown further in DMEM. […] Fluorescent high molecular weight hyaluronan and fluorescent oligosaccharides were introduced into the cytosol by osmotic lysis of pinocytotic vesicles. The kinetics of export was measured in a fluorescent ELISA reader in the presence and absence of the hyaluronan transport inhibitor benzbromaron.

MRP5 = MRP5 (Homo sapiens, UniProt O15440); conditions: cited from earlier work
Chain of MRP5 (O15440 whole entry): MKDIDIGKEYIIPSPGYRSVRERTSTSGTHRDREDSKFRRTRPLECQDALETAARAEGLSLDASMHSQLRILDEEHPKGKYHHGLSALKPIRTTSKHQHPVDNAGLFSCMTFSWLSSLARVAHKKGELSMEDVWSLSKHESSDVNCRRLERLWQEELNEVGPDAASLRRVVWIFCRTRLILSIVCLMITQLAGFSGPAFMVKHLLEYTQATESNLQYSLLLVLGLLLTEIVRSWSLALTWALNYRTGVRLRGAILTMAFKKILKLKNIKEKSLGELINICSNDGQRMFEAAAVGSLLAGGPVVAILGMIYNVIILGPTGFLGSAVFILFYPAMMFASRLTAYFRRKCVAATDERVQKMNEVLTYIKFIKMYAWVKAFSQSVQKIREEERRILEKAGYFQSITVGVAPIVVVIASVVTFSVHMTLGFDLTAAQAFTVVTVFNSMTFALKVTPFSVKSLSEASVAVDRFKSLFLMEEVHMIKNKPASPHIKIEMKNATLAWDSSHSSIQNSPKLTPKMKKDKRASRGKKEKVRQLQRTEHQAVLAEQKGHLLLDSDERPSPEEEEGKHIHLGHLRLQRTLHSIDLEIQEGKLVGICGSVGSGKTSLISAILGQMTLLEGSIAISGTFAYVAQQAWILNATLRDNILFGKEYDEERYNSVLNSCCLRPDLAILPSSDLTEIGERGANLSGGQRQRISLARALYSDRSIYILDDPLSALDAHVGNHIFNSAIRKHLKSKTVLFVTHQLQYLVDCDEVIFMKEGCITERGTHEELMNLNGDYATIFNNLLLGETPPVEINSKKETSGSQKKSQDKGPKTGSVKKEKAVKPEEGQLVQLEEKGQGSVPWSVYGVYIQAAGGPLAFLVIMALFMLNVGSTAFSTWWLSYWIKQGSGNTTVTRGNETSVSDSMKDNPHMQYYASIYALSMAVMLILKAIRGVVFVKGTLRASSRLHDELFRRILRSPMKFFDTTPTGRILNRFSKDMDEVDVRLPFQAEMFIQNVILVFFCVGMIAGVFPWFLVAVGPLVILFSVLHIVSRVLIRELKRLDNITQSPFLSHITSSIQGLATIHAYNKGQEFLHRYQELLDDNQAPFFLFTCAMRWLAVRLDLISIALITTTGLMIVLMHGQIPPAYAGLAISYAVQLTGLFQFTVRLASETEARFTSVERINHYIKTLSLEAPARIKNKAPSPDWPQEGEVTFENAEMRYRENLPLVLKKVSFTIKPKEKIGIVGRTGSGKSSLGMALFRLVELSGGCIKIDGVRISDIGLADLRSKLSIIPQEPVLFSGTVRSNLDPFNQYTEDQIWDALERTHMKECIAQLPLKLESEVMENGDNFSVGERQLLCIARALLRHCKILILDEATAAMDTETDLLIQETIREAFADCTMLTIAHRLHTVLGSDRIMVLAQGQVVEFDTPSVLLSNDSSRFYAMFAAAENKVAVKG

MRP4 = biological target: T1, MRP4 (Homo sapiens, UniProt O15439); conditions: cited from earlier work
T1 sequence (O15439 1-1325): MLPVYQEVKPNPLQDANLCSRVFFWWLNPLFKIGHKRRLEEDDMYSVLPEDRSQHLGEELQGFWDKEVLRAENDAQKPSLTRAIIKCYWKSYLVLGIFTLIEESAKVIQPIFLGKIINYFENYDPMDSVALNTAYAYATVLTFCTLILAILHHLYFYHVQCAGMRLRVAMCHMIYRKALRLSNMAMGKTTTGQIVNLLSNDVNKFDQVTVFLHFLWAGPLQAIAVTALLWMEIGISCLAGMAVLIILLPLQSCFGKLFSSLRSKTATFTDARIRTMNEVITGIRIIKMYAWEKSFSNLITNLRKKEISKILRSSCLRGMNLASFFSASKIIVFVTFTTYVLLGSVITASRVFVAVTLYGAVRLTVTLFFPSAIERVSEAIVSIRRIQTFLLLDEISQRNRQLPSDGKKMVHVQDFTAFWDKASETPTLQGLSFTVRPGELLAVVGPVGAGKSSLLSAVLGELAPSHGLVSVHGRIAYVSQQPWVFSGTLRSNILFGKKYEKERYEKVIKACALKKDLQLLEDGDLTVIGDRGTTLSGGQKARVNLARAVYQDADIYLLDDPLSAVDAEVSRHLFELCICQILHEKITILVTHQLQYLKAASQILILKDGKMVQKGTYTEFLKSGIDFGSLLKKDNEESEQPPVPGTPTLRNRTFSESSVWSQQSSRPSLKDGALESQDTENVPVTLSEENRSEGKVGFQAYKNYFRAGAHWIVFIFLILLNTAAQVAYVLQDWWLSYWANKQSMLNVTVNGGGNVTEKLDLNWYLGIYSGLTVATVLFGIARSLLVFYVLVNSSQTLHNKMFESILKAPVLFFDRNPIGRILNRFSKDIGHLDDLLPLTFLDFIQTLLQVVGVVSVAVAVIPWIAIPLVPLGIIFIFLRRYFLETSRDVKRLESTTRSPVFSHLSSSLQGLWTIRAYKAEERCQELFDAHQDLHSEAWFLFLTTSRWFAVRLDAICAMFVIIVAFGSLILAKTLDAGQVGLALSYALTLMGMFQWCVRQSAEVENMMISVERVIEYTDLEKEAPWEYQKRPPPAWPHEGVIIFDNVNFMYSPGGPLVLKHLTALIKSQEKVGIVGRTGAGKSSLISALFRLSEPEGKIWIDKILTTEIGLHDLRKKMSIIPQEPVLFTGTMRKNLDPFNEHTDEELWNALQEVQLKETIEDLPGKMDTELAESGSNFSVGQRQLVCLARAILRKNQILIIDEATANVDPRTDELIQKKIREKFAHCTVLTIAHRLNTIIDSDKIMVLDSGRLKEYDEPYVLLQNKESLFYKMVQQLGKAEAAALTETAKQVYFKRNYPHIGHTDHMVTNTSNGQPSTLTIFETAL

MDR1 = MDR1 (Homo sapiens, UniProt P08183); conditions: cited from earlier work
Chain of MDR1 (P08183 whole entry): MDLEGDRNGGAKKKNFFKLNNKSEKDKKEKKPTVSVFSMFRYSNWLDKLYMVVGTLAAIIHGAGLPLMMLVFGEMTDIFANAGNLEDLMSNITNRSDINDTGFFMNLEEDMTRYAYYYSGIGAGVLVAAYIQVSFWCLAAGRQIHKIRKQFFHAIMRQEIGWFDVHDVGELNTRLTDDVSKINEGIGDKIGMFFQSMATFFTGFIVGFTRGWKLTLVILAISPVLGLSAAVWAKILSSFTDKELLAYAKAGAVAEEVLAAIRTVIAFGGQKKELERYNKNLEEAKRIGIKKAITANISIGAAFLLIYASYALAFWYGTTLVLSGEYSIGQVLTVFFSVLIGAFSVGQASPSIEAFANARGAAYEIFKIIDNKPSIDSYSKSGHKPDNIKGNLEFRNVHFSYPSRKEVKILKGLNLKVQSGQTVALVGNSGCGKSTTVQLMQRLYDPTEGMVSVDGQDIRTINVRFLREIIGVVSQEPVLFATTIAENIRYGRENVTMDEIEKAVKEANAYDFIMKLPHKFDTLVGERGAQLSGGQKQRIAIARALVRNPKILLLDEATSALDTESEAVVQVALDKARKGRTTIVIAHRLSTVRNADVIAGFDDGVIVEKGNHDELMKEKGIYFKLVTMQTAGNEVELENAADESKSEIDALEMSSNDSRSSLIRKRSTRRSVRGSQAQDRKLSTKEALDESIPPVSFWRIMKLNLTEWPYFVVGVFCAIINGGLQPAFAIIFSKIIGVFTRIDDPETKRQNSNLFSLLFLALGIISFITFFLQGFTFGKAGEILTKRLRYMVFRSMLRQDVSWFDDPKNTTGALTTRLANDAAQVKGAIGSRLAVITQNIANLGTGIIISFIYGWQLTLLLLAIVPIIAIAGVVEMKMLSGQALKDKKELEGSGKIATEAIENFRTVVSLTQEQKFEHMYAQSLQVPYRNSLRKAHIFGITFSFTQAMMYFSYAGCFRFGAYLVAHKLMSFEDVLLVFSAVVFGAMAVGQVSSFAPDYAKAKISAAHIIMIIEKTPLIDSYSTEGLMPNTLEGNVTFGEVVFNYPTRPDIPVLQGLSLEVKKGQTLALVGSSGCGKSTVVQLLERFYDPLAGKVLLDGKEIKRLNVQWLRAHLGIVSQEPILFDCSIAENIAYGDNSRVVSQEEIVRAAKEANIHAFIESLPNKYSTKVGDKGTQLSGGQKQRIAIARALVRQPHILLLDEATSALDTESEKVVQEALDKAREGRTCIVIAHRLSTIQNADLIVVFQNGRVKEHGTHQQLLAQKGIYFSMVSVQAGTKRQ

human skin fibroblasts = assay: Proliferation of human skin fibroblasts (cell counting); type: cell-based; conditions: for IC50: read-out: Proliferation (IC50)
Description: Human fibroblasts were grown in […] in Dulbecco's modified Eagles medium supplemented with streptomycin/penicillin (100 units of each/ml), kanamycin (100 units/ml) and 10% foetal calf serum. Cell proliferation was determined by cell counting after trypsinisation three days after seeding.

human fibroblasts [2] = assay: Hyaluronan production of human fibroblasts (ELISA of culture medium); type: cell-based; conditions: for IC50: read-out: HA production (IC50); for hyaluronan in culture medium: human skin fibroblasts / fibroblast cell line, increasing concentrations, 3 days
chloride channel = conditions: cited from earlier work
MRP1 = MRP1 (Homo sapiens, UniProt P33527); conditions: cited from earlier work
MRP transporters = test system: T2, MRP transporters; conditions: human erythrocytes; cited from earlier work
T2 construct: other: human erythrocytes

ABCA = conditions: ABCA1; read-out: IC50, secretion of macrophage inhibitory factor (ABCA1); cited from earlier work
MRP3 = MRP3 (Homo sapiens, UniProt O15438); conditions: cited from earlier work
Chain of MRP3 (O15438 whole entry): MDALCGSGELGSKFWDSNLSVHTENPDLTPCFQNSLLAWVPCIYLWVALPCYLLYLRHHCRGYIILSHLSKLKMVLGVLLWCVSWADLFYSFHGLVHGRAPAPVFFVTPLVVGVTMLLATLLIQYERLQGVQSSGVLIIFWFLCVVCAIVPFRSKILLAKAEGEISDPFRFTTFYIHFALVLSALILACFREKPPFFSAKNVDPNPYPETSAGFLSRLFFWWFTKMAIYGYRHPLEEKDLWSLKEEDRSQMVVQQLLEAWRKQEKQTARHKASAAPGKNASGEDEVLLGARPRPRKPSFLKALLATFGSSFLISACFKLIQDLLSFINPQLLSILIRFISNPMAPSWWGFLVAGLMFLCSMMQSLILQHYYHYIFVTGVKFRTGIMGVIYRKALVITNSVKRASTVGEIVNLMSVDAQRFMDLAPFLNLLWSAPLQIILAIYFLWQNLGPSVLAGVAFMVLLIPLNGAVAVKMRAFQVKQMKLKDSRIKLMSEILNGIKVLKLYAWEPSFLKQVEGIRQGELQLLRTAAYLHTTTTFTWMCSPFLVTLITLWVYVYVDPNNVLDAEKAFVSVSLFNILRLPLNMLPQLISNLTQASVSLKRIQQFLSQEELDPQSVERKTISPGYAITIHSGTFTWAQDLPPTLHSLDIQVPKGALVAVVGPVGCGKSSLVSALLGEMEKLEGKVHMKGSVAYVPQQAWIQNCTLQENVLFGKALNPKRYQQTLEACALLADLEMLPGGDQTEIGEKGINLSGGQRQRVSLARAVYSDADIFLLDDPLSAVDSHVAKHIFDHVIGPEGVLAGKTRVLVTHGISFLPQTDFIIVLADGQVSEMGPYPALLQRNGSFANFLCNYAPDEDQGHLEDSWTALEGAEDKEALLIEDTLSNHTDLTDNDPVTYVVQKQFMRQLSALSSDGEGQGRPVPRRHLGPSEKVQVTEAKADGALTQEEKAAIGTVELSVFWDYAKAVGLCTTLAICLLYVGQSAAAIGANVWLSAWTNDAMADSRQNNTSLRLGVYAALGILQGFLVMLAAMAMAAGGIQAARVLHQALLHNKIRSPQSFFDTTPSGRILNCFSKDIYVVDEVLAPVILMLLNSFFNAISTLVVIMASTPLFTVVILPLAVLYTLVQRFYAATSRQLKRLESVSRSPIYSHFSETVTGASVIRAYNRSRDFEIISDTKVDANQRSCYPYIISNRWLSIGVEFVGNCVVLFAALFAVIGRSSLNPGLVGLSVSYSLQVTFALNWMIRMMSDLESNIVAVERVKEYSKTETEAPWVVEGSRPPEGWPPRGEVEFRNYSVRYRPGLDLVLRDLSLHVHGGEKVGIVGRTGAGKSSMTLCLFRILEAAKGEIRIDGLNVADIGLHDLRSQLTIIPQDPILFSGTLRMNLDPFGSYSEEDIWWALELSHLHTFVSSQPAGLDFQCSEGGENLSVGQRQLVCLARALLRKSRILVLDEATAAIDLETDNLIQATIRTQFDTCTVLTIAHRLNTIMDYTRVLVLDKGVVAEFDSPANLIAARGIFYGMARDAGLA

MRP2 = MRP2 (Homo sapiens, UniProt Q92887); conditions: cited from earlier work
membranes from HT29 = assay: Hyaluronan transport activity in isolated membranes from HT29; type: biochemical, human
HT29 = assay: Hyaluronan production of colon carcinoma cell line HT29 (versus HT29-mdr); conditions: increasing concentrations
Description: Cells were seeded in 24 multiwell dished with a diameter of 2 cm^2 at a density of 2×10^4 cells/cm^2 in Dulbecco's media containing 10% foetal bovine serum and increasing concentrations of inhibitors. After incubation for 3 days at 37° C. the cells were trypsinized and counted. The concentration of hyaluronan was determined in the culture medium by an ELISA assay [87].

[3] = test system: human synovial fibroblasts; assay: Hyaluronan production of human synovial fibroblasts; type: cell-based
[4] = test system: human synovial fibroblasts; assay: Growth of human synovial fibroblasts; type: cell-based
[5] = test system: osteoarthritic cartilage in rat knee joints; assay: Iodoacetate rat model of osteoarthritis, proteoglycan loss in knee cartilage; type: in vivo
Description: Osteoarthritic damage was induced in the left knees iodoacetate into the synovial cavity. The right knees remained untreated and served as controls. Three rates were feed with normal drinking water and three with drinking water containing Verapamil. After 17 days the rats were sacrificed and the articular cartilage was analysed histologically. Acid polysaccharides were stained with alcian blue and the preparation was counterstained with nuclear fast red.
The animal trials were performed in accordance with the guidelines of the local ethical committee. Osteoarthritic damage was induced in the left knees of 6 Wistar rats by injection of a solution of 50 μl of 10 mM iodoacetate into the synovial cavity. […] After 17 days the rats were sacrificed and the articular cartilage was analysed histologically. […]
Male Wistar rats (Charles River, Sulzfeld, Germany) having a body weight of 150 g were fed on ordinary laboratory diet and were housed in cages with a floor area of 800 cm^2. […] After 21 days, the rats were sacrificed and the articular cartilage was analysed by histology. […] Digital photos were taken and the blue colour of the proteoglycans was quantitatively evaluated by the free Scion Image Software. To eliminate staining artefacts, the staining of proteoglycans on the joint surface was related to the staining density at the […] and expressed as percent. […]

[6] = Fibroblast, human fibroblasts, culture medium

Structure (SMILES)	hyaluronan transport / synthase activity in membranes (hyaluronan synthase)	IC50 (hyaluronan synthase) [µM]	IC50 (hyaluronan transport) [µM]	inhibition of hyaluronan transport (words) (hyaluronan transport)	IC50 (human skin fibroblasts; Homo sapiens, Skin fibroblast) [µM]	IC50 (human fibroblasts [2]; Homo sapiens, Fibroblast) [µM]	IC50 (human fibroblasts [2]; [6]) [µM]	hyaluronan in culture medium (human fibroblasts [2])	published inhibitory concentrations IC50 or Ki, MRP3 (MRP3)	published inhibitory concentrations IC50 or Ki, MRP5 (MRP5)	published inhibitory concentrations IC50 or Ki, MRP4 (MRP4)	published inhibitory concentrations IC50 or Ki, MRP2 (MRP2)	further results
CCc1oc2ccccc2c1C(=O)c1cc(Br)c(O)c(Br)c1 [Benzbromarone]	almost completely inhibited	12	25	very effective inhibitor	75	30	–	–	–	–	–	–	inhibition of hyaluronan transport (words) (hyaluronan transport; listed as benzbromarone): inhibited hyaluronan transport; export of fluorescent hyaluronan oligosaccharides from the cytosol (human fibroblasts [1]): inhibits the export; IC50 (MRP5; read-out: IC50 for MRP5): 150 µM; IC50 (MRP5; substrate PMEA, read-out: IC50, PMEA transport by MRP5): 150 µM; IC50 (MRP5; substrate S-(2,4-dinitrophenyl)glutathione, read-out: IC50, MRP5 mediated transport of S-(2,4-dinitrophenyl)glutathione): < 5 µM; IC50 (MRP4; read-out: IC50, 9-(2-phosphonomethoxyethyl)adenine (PMEA) transport by MRP4, substrate PMEA): 150 µM; IC50 (MRP4; read-out: IC50 for MRP4): 150 µM; IC50 (MRP4; read-out: published inhibitory concentrations IC50 or Ki, MRP4): 150 µM; IC50 (MDR1): > 800 µM
O=S(=O)(O)c1cc(N=C=S)ccc1C=Cc1ccc(N=C=S)cc1S(=O)(=O)O [DIDS, 4,4-diisothiocyanatostilbene-2,2-disulfonic acid]	–	> 400	–	partially	–	–	–	–	–	–	–	–	decrease of hyaluronan transport activity (hyaluronan synthase; membranes from human fibroblast cell line): 70%; Ki (chloride channel): 0.84 µM; IC50 (MRP1): 150 to 300 µM; IC50 (MRP4): 150 to 300 µM; IC50 (human skin fibroblasts; human fibroblasts): 250 µM; IC50 (MRP transporters): 150 to 300 µM; IC50 (human fibroblasts [2]; human fibroblasts, culture medium): 50 µM
COc1ccc(Cl)cc1C(=O)NCCc1ccc(S(=O)(=O)NC(=O)NC2CCCCC2)cc1 [Glyburide]	–	120	–	–	7	–	~400	partially inhibited	–	–	–	–	IC50 (MRP4; read-out: IC50, MRP4 mediated transport of cGMP, substrate cGMP, human erythrocytes): 1.9 µM; concentration inhibiting MDR1 mediated export of colchicine (MDR1; substrate colchicine): about 100 μM; IC50 (ABCA): ~5 µM; inhibition at 400 µM (human fibroblasts [2]; Homo sapiens, Fibroblast, even at 400 μM, read-out: inhibition of hyaluronan secretion): ≤ 50%
CCCCCCCCCCSC[C@H](NC(=O)CC[C@H](N)C(=O)O)C(=O)NCC(=O)O [S-decylglutathione]	–	40	–	very good inhibitor	–	–	7	–	low	good	good	good	–
COc1ccc(CCN(C)CCCC(C#N)(c2ccc(OC)c(OC)c2)C(C)C)cc1OC (stereo not drawn) [Verapamil]	blocked the hyaluronan transport in a concentration dependent manner	~50	~50	inhibited also hyaluronan synthesis	20	15	–	reduced	–	–	–	–	hyaluronan transport activity in membranes, sensitive cell line HT29 (membranes from HT29): inhibition is not complete; hyaluronan transport in HT29 compared with HT29-mdr (HT29): more efficiently blocked hyaluronan transport in HT29 than in HT29-mdr; hyaluronan production of human synovial fibroblasts [3]: inhibited; growth of human synovial fibroblasts [4]: inhibited growth; protection from proteoglycan loss ([5]; administered at the day of injury or three days later, analysed after 21 days): completely protected from proteoglycan loss; protection from proteoglycan loss ([5]; treatment started later than three days, up to 21 days after injury): partially prevent proteoglycan loss; cell growth (human skin fibroblasts; human skin fibroblasts, increasing concentrations, 3 days): reduced
CN(Cc1cnc2nc(N)nc(N)c2n1)c1ccc(C(=O)N[C@@H](CCC(=O)O)C(=O)O)cc1 [methotrexate]	did not inhibit	> 400	–	did not inhibit	~200	–	~200	–	substrate	no	substrate	substrate	published inhibitory concentrations IC50 or Ki, MRP1 (MRP1): substrate
